Patent US5223415A, “Biosynthetic production of 7-[1',2',6',7',8',8a'(R)-hexahydro-2'(S),6'(R)-dimethyl-8'(S)-hydroxy-1' (S)-naphthyl]-3(R),5(R)-dihydroxyheptanoic acid (triol acid)” (Merck & Co., Inc., priority 1992, dated 1993)
Structures can show the parent of a compound that is named as a salt.

What was measured:
[1] = test system: crude homogenate of Clonostachys compactiuscula; type: biochemical; details: equal volumes of crude homogenate (about 0.5 mg/ml protein) and lovastatin acid ammonium salt 5 g/L, 29° C., within 2 hrs
Protocol: Clonostachys compactiuscula ATCC 38009 was grown in 250 ml shake flasks containing 12 ml of medium EN at 29° C. for 3 days. Lovastatin ammonium salt was added to give a concentration of 2.5 g/L and fermentation was continued for 2 additional days. To prepare the crude homogenate, the culture was harvested by centrifugation at 3000 rpm for 10 minutes, after which it was washed with 50 mM of N-tris(hydroxymethyl)methyl-2-aminoethanesulfonic acid (TES) buffer, pH 7.7. The culture medium was again centrifuged and the cell mass was chilled on ice and then subjected to grinding in a mortar and pestle containing glass fragments and powdered dry ice. The contents of 1 shake flask was resuspended in 2.0 ml of 50 mM TES buffer and centrifuged at 6000 rpm for 10 minutes to remove cell debris and glass fragments. The supernatant was used as the source of crude homogenate with protein concentration of approximately 0.5 mg/ml.
In order to carry out the biotransformation, one volume of crude homogenate was combined with an equal volume of lovastatin acid ammonium salt (5 g/L), and the mixture was incubated at 29° C. Using this method, 80-90% conversion of lovastatin acid to triol acid was observed within 2 hrs.

[2] = test system: purified Clonostachys compactiuscula esterase; type: biochemical; details: within 16 h; enzyme 4.0 or 40.0 microgram/ml, simvastatin 10 or 35 mM, pH 7.8 or 9.5, methanol 0-20% v/v (conditions listed in table 1)
Protocol: Clonostachys compactiuscula esterase was purified from 57 g mycelial cells which had been grown up in medium EN using the methods detailed in Examples 1 and 3. The use of a Pharmacia HR 10/10 MONO Q® column allowed the application of 85 mL of crude cell-free extract per purification run. In total 0.89 mg of purified esterase was obtained (in a volume of 10 mL) which was then concentrated to 0.175 mg protein/mL by ultrafiltration using a 10,000 molecular weight cut-off CENTRIPREP® device (AMICON®).
Other conditions which were varied were pH (7.8 and 9.5 were assessed) and methanol concentration (0, 10 and 20% [v/v, final concentration]). The reactions were buffered by the inclusion of either 100 mM TRIS (in the case of reactions carried out at pH 7.8) or 100 mM glycine […]. Greater than 90% hydrolysis of residual lovastatin acid to triol acid was obtained within 16 h under the following conditions: […]

[3] = test system: purified lovastatin acid hydrolase from Clonostachys compactiuscula; assay: Km and specific activity of purified hydrolase with lovastatin ammonium salt as substrate; type: biochemical; details: for specific activity: saturating substrate conditions
Protocol: A hydrolytic enzyme which carries out the biotransformation of lovastatin acid to triol acid was purified by Fast Protein Liquid Chromatography (FPLC*) employing a MONO Q® anion exchange column to near homogeneity from homogenates of Clonostachys compactiuscula employing the procedures described below.
The supernatant from the 6,000 rpm centrifugation as in Example 2 above, but where 50 mM of tris(hydroxymethyl)aminomethane (TRIS) buffer (pH 7.8) is substituted for 50 mM TES buffer, was centrifuged at 15,000 rpm for 20 minutes and the resulting supernatant filtered through a […] filter. Batches (10 mL) of filtrate containing 0.3-0.5 mg/mL protein were then applied at a rate of 1.0-2.0 mL/minute to a Pharmacia MONO Q® (HR 5/5) anion exchange column connected to a Pharmacia Fast Protein Liquid Chromatography (FPLC) system.
(§1) After allowing binding of the anionic proteins to the column matrix, the hydrolase was specifically eluted by the application of a linear gradient of sodium chloride (0-500 mM) in 20 mM TRIS, pH 7.8. […] When the latter substrate was used, the hydrolytic reaction was monitored spectrophotometrically at 410 nm essentially as described by Lawrence, R. C. et al. in J. Gen. Microbiol. (1967) 48, 401-418.
Using the purified enzyme preparation, the biotransformation was carried out in accordance with the procedures described above in Examples 1, 2, 4 and 6, and an estimate was made of the hydrolase's Km and specific activity with lovastatin ammonium salt as substrate. […]
as §1, with “mM).” for “mM) in 20 mM TRIS, pH 7.8.”, “Microbiol. (1967) 48, 401-418.” left out

[4] = test system: crude hydrolase (6000 rpm supernatant) of Clonostachys compactiuscula ATCC 38009; details: lovastatin 1.4 mM and simvastatin 18.6 mM ammonium salts solution, 50 mM Tris pH 7.8, methanol, 29 C., after 17 h
Protocol: The resulting homogenized, frozen powder was transferred to a suitable tube and the material remaining in the mortar washed into the same tube using a minimal volume of 50 mM Tris, pH 7.8. The mixture was then allowed to thaw and then centrifuged at 6000 rpm for 10 minutes to remove large cell debris and glass.
The 6000 rpm supernatant was used as a crude source of hydrolase and 0.8 mL was mixed with 0.2 mL methanol and 1.0 mL of a solution of simvastatin (18.6 mM and lovastatin (1.4 mM) ammonium salts in 50 MM Tris, pH 7.8.) The reaction mixture was incubated at 29 C. and sampled after 1 h, 2 h, and 17 h by removing 0.1 mL and diluting with 0.9 mL methanol. The samples were then subjected to analysis by HPLC using a Whatman C-8 column as stationary phase and a 60:40 mixture of acetonitrile: 0.5% phosphoric acid as mobile phase; under these conditions the respective retention times for simvastatin, lovastatin and triol ammonium salts are 4.4 min., 3.8 min., and 2.5 min.

| Compound | conversion of lovastatin acid to triol acid [1] | hydrolysis of residual lovastatin acid to triol acid [2] | Km ([3]; lovastatin ammonium salt as substrate, purified enzyme preparation) [mM] | specific activity ([3]; Example 3) | specific activity ([3]; Example 4) | conversion of lovastatin (HPLC area percent reduction) [4] |
| --- | --- | --- | --- | --- | --- | --- |
| CC[C@H](C)C(=O)O[C@H]1C[C@@H](C)C=C2C=C[C@H](C)[C@H](CC[C@@H](O)C[C@@H](O)CC(=O)O)[C@H]21 [lovastatin acid] | 80-90% | Greater than 90% | – | – | – | – |
| CC[C@H](C)C(=O)O[C@H]1C[C@@H](C)C=C2C=C[C@H](C)[C@H](CC[C@@H](O)C[C@@H](O)CC(=O)O)[C@H]21 [lovastatin ammonium salt] | – | – | 4.14 | 0.04 mmol lovastatin ammonium salt hydrolyzed/mg protein per minute | 0.11 mmol lovastatin ammonium salt/mg protein per hour | greater than 99% |
